Entries after “also recorded” stand apart in the source; their conditions may differ.
Experiments:
Assay type in all cases: physicochemical
[1] = Solubility of selected UV-A-tracers in selected concentrates; details: for Solubilities of selected UV-A-tracers in concentrates and optically visible changes compared with the original concentrate: 0.2 g UV-A-tracer in 100 g concentrate, stirred 3 hours; for Solubility in the concentrates: all five concentrates (preparations 1 to 5)
Source text: Solubilities of selected UV-A-tracers in concentrates containing various active ingredient combinations (preparations 1 to 5) and optically visible changes compared with the original concentrate, "+" UV-A-tracer soluble in 100 g of preparation to at least 0.2 g, "y" the originally colourless concentrate turns yellowish as a result of the incorporation of the UV-A-tracer.

[2] = Stability investigations of UV-A-tracer-containing concentrates (optically visible changes on storage); details: clear glass bottles, room temperature, window-sill vs dark, 3 months
Source text: Since the UV-A-tracers are to be used for determining the active ingredient concentrations of disinfectant solutions, the UV-A-tracer-containing concentrates must be sufficiently stable throughout the entire storage life of the commercially available disinfectant concentrates (approximately 3 years). In order to investigate the stability of the UV-A-tracers, preparations 1 to 5 to which UV-A-tracers have been added were stored in clear glass bottles at room temperature firstly on a window-sill and secondly as a reference in the dark. Over a period of 3 months, the optically visible changes of the UV-A-tracer-containing preparations stored under varying conditions were observed and, at regular time intervals, 1% dilutions of these UV-A-tracer-containing preparations in water were investigated spectroscopically.

[3] = Absorption spectrophotometric stability investigations of the incorporated UV-A-tracers
Method: The long-term stability of combinations of concentrate and UV-A-tracers in the dark and under the effect of light was investigated by reference to UV spectra. The combinations below were used (Table 7): Table 7
Following storage at room temperature for 4, 8 or 12 weeks in the dark or in daylight, 1% strength dilutions of each of the preparations in water were prepared.

[4] = Prep.4 (Combinations of aldehydes)
[5] = Prep.5 (Quat + phenoxypropanols)
[6] = amine-containing preparations (1 and 2)

Row | Structure (SMILES) | Solubilities of selected UV-A-tracers in concentrates and optically visible changes compared with the original concentrate ([1]; Prep.1 (Quat + alkylamine)) | Solubilities of selected UV-A-tracers in concentrates and optically visible changes compared with the original concentrate ([1]; Prep.2 (Quat + GuAc)) | Solubilities of selected UV-A-tracers in concentrates and optically visible changes compared with the original concentrate ([1]; Prep.3 (Quat + org. acid)) | Solubilities of selected UV-A-tracers in concentrates and optically visible changes compared with the original concentrate [1, 4] | Solubilities of selected UV-A-tracers in concentrates and optically visible changes compared with the original concentrate [1, 5] | Solubility in the concentrates [1] | Colour change on incorporation of the UV-A-tracer ([1]; all preparations) | Changes within the observation period ([2]; in Preparation 1) | Changes within the observation period ([2]; in Preparation 2) | Changes within the observation period ([2]; in Preparation 3) | Changes within the observation period ([2]; in Preparation 4) | Changes within the observation period ([2]; in Preparation 5) | Divergence of the absorptions between sample stored in the dark and sample exposed to daylight ([3]; in preparation 5, after 12 weeks, 1% strength dilutions in water) | Odour of the sample ([3]; in preparation 5, exposed to daylight, after 12 weeks) | Changes of the sample ([3]; in preparation 5, stored in the dark) | Colour change on incorporation of the UV-A-tracer [1, 6] | Decomposition of the UV-A-tracer ([3]; preparations 3, 4 and 5, storage in the dark and in daylight)
1 | CC1CCC(C(C)C)C(OC(=O)c2ccccc2N)C1 (stereo not drawn) [Menthyl anthranilate, Menthyl o-aminobenzoate] | + (UV-A-tracer soluble in 100 g of preparation to at least 0.2 g) | + (UV-A-tracer soluble in 100 g of preparation to at least 0.2 g) | + (UV-A-tracer soluble in 100 g of preparation to at least 0.2 g) | + (UV-A-tracer soluble in 100 g of preparation to at least 0.2 g) | + (UV-A-tracer soluble in 100 g of preparation to at least 0.2 g) | dissolves in all preparations | without visible colour changes | slight yellowish tinge; also recorded: slight yellow coloration | slight yellowish tinge; also recorded: slight yellow coloration | intensive yellow coloration | pale yellow-green colour | from green to yellow | significant divergence | intensive unpleasant odour | does not display any perceptible changes | – | –
2 | COc1ccc(C(=O)c2ccccc2)c(O)c1 [Benzophenone-3, 2-Hydroxy-4-methoxybenzophenone] | +y | +y | + (UV-A-tracer soluble in 100 g of preparation to at least 0.2 g) | + (UV-A-tracer soluble in 100 g of preparation to at least 0.2 g) | + (UV-A-tracer soluble in 100 g of preparation to at least 0.2 g) | dissolves without problems | – | – | – | does not display changes of any kind and none | – | – | – | – | – | intensive yellow coloration | In none of the three disinfectants was decomposition of benzophenone-3 observed
3 | COc1cc(O)c(C(=O)c2cc(S(=O)(=O)[O-])c(OC)cc2O)cc1S(=O)(=O)[O-].[Na+].[Na+] [Benzophenone-9, 2,2'-dihydroxy-4,4'-dimethoxybenzophenone-5,5'-disodium sulphonate] | +y | +y | +y | + (UV-A-tracer soluble in 100 g of preparation to at least 0.2 g) | + (UV-A-tracer soluble in 100 g of preparation to at least 0.2 g) | – | – | – | – | – | – | – | – | – | – | intensive yellow coloration | –
4 | COc1cc(O)c(C(=O)c2ccccc2)cc1S(=O)(=O)O [Benzophenone-4, 2-Hydroxy-4-methoxybenzophenone-5-sulphonic acid] | +y | +y | + (UV-A-tracer soluble in 100 g of preparation to at least 0.2 g) | + (UV-A-tracer soluble in 100 g of preparation to at least 0.2 g) | + (UV-A-tracer soluble in 100 g of preparation to at least 0.2 g) | – | – | – | – | – | – | – | – | – | – | intensive yellow coloration | –
5 | COc1ccc(C(=O)c2ccc(OC)cc2O)c(O)c1 [Benzophenone-6, 2,2'-Dihydroxy-4,4'-dimethoxybenzophenone] | +y | +y | +y | + (UV-A-tracer soluble in 100 g of preparation to at least 0.2 g) | + (UV-A-tracer soluble in 100 g of preparation to at least 0.2 g) | – | – | – | – | – | – | – | – | – | – | intensive yellow coloration | –

Source: patent publication EP1192860B1, “UVA-tracer containing disinfectant and method of determining the degree of dilution of disinfectants using UVA-tracers” (Air Liquide Santé (International), priority 2000, dated 2002)
